Paper PMC11524583, “Neurons enhance blood–brain barrier function via upregulating claudin-5 and VE-cadherin expression due to glial cell line-derived neurotrophic factor secretion” (eLife, 2024)

Assays:
Format in all cases: cell-based, Homo sapiens
claudin-5 = assay: Western blot of claudin-5 expression in hCMEC/D3 cells; settings: hCMEC/D3 cells; for GDNF-induced claudin-5 expression: 200 pg/ml GDNF, 3 μM SPP-86, 5 μM PP2, 3 μM LY294002, 2 μM U0126, 5 μM SP600125, 2 μM SB203580; for GDNF-induced claudin-5 expression / US-CM-induced claudin-5 expression: anti-GDNF antibody 0.25, 0.5, 1.0 μg/ml; for US-CM-induced claudin-5 expression: 3 μM SPP-86, 5 μM PP2, 3 μM LY294002, 2 μM U0126
Method: (§1) Whole-cell and tissue lysates, nucleoprotein, and cytoplasmic protein were prepared using RIPA Lysis Buffer (Beyotime, Shanghai, China) as the described method ([Wu et al., 2021]). Proteins were separated through sodium dodecyl sulfate–polyacrylamide gel electrophoresis and transferred onto nitrocellulose or polyvinylidene difluoride membranes. The membranes were blocked with 5% skim milk and incubated with corresponding primary antibodies at 4°C overnight. After being washed with Tris-buffered saline Tween buffer, the membranes were incubated with secondary antibodies (Cell Signaling Technology, MA, USA) at 1:3000 dilution: Anti-mouse IgG, HRP-linked Antibody (#7076), Anti-rabbit IgG, HRP-linked Antibody (#7074). Protein levels were visualized using a highly sensitive ECL western blotting substrate and a gel imaging system (Tanon Science & Technology, Shanghai, China).
(§2) CM of U251 cells (U-CM), SH-SY5Y cells (S-CM), or co-culture of U251 and SH-SY5Y cells (US-CM) was prepared. U251 cells were seeded at the top of the insert membrane and suspended on 6-well plates seeded with differentiated SH-SY5Y cells to co-culture U251 cells with SH-SY5Y cells. The medium was collected every 24 hr. The CMs were subsequently used for hCMEC/D3 cell culture after filtrating with 0.2 μm filters for 144 hr. The levels of GDNF, bFGF, IGF-1, and TGF-β in CMs were measured using corresponding ELISA kits according to the manufacturers’ instructions.
(§3) Exogenous and endogenous GDNF in the medium was neutralized with anti-GDNF antibody (#AF-212-NA, R&D system, Minneapolis, MN, USA). 0.25, 0.5, and 1.0 μg/ml anti-GDNF antibody was added into the US-CM or medium containing 200 pg/ml GDNF, and then the medium was preincubated at 4°C for 1 hr. The hCMEC/D3 cells were incubated with 200 pg/ml GDNF or US-CM containing anti-GDNF antibody or not for 6 days, and then cell lysate was collected for western blot. The medium was replaced every 24 hr.
(§4) Here, hCMEC/D3 cells were plated in the plates or culture dishes at 6 × 10^4 cells/cm^2 and transfected with 10 nM of negative control or human FOXO1, ETS1, and CDH5 siRNA (Tsingke Biotechnology, Beijing, China) for 12 hr using Lipofectamine 3000 (Invitrogen, Carlsbad, CA, USA) reagent according to the manufacturer’s instructions. Cells were then incubated with a medium containing GDNF for 72 hr.
(§5) The plasmids encoding FOXO1 (EX-Z7404-M02) were constructed by GeneCopoeia (Rockville, MD, USA). The hCMEC/D3 cells were plated in plates or dishes at 6 × 10^4 cells/cm^2. They were subsequently transfected with 1 µg of negative control or plasmids encoding FOXO1 6 hr using Lipofectamine 3000 reagent according to the manufacturer’s instructions. Transfected cells were then incubated with the medium containing GDNF for 72 hr.

VE-cadherin = assay: Western blot of VE-cadherin expression in hCMEC/D3 cells; settings: hCMEC/D3 cells, anti-GDNF antibody 0.25, 0.5, 1.0 μg/ml; for GDNF-induced VE-cadherin expression: 200 pg/ml GDNF, 3 μM SPP-86, 5 μM PP2, 3 μM LY294002, 2 μM U0126, 5 μM SP600125, 2 μM SB203580; for US-CM-induced VE-cadherin expression: 3 μM SPP-86, 5 μM PP2, 3 μM LY294002, 2 μM U0126
Method: as §1, §2, §3, §4

p-AKT/AKT = assay: Western blot of p-AKT/AKT in hCMEC/D3 cells; settings: hCMEC/D3 cells, US-CM; 3 μM LY294002 or anti-GDNF antibody
Method: as §1, §3

FOXO1 = assay: Western blot of FOXO1 (p-FOXO1/FOXO1, total, cytoplasmic, nuclear) in hCMEC/D3 cells; settings: hCMEC/D3 cells; LY294002 or U0126
Method: as §1, §4, §5

ETS1 = assay: Western blot of total and nuclear ETS1 in hCMEC/D3 cells; settings: hCMEC/D3 cells, 200 pg/ml GDNF; LY294002 or U0126
Method: as §1, §4

p-ERK/ERK = assay: Western blot of p-ERK/ERK in hCMEC/D3 cells; settings: hCMEC/D3 cells, US-CM; 2 μM U0126 or anti-GDNF antibody
Method: as §1, §3

Structure (SMILES) | GDNF-induced claudin-5 expression (claudin-5) | US-CM-induced claudin-5 expression (claudin-5) | upregulation of claudin-5 expression induced by FOXO1 siRNA and GDNF (claudin-5; LY294002) | GDNF-induced VE-cadherin expression (VE-cadherin) | US-CM-induced VE-cadherin expression (VE-cadherin) | US-CM-induced p-AKT (p-AKT/AKT) | GDNF-induced alterations in total p-FOXO1, cytoplasmic p-FOXO1, cytoplasmic FOXO1, and nuclear FOXO1 (FOXO1) | GDNF-induced nuclear ETS1 expression (ETS1) | GDNF-induced total ETS1 expression (ETS1) | US-CM-induced p-ERK (p-ERK/ERK)
O=c1cc(N2CCOCC2)oc2c(-c3ccccc3)cccc12 [LY294002, reference compound] | significantly suppressed | markedly reversed | reversed | significantly suppressed | markedly reversed | markedly reversed | significantly reversed | markedly attenuated | markedly attenuated | 
N#CC(=C(/N)Sc1ccccc1N)/C(C#N)=C(/N)Sc1ccccc1N [U0126, reference compound] | significantly suppressed | markedly reversed |  | significantly suppressed | markedly reversed |  |  | markedly attenuated | markedly attenuated | markedly reversed
